Reference: ChEMBL document CHEMBL1201862, “PubChem BioAssay data set” (2004)
The source made the active and inactive calls.

Key:
[1] = inhibitors of HIV Env-driven cell fusion, dose response, cherry-pick (AID 652057); type: functional, cell-based
[2] = inhibitors of clade B AD8 Env fusion, dose response, cell-based, cherry-pick (AID 652062); type: functional;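 note: luciferase signal from cell-cell fusion driven by HIV-1 clade B AD8 Env; potency is for inhibitors of fusion seen as a drop in luminescence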
[3] = ZM109 Env clade C HIV-1 fusion inhibitors, dose response, HeLa effector, CEM target cells, luciferase, cherry-pick (AID 652058); type: functional, cell-based
[4] = CEM21 lymphoblast cell cytotoxicity, dose response, cytotoxicity control for viral fusion inhibitor project, CellTiter-Glo luminescence, cherry-picked (AID 652042); type: functional, cell-based;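 note: potency for signal decrease meaning cytotoxicity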
[5] = off-target signal loss in HeLa-CEM21 co-culture – HeLa F-luc CTL cells, cherry-picked, counter-screen for HIV-1 Env fusion inhibitor project, dose response (AID 652040); type: functional, cell-based;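 note: potency for signal decrease marking cytotoxic or nonspecific inhibition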
[6] = biological target: Induced myeloid leukemia cell differentiation protein Mcl-1 (Homo sapiens, UniProt Q07820); type: functional
Vero = Vero cell cytotoxicity, cytotoxicity control for flavivirus capping enzyme inhibitors (AID 588742); type: functional; details: Chlorocebus sabaeus
[7] = biological target: T1, Apoptotic protease-activating factor 1 (Homo sapiens, UniProt O14727); type: functional
T1 sequence (O14727 whole entry): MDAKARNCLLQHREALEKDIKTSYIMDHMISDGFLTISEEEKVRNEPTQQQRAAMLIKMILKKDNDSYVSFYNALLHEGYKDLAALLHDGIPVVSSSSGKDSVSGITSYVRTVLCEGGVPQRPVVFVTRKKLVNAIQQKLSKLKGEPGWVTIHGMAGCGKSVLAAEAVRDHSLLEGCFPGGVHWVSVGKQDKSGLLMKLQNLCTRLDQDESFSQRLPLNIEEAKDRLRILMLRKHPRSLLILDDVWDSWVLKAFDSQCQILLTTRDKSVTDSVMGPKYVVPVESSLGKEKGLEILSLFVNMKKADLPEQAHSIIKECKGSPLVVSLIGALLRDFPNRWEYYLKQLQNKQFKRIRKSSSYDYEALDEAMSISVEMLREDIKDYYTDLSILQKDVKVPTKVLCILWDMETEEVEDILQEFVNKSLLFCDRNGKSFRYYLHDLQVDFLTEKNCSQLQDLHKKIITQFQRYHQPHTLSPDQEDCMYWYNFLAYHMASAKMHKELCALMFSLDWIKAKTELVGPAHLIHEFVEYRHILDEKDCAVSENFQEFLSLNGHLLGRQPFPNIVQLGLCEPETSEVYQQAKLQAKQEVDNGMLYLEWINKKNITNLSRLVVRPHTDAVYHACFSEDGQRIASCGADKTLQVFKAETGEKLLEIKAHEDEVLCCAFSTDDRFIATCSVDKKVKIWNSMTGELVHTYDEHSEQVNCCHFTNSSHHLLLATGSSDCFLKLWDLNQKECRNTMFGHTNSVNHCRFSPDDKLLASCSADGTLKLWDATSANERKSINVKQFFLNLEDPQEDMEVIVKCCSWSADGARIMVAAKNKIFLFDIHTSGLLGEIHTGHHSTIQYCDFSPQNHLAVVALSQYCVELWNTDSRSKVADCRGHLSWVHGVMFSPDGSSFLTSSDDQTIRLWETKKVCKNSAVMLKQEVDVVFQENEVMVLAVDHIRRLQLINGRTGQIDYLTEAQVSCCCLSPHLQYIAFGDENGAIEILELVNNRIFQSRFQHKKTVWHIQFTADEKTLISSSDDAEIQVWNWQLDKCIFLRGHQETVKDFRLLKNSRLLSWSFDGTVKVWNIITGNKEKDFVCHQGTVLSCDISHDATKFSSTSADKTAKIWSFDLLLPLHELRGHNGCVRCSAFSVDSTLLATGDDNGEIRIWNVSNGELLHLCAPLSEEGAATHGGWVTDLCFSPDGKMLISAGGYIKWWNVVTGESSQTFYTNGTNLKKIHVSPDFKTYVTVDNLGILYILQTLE

[8] = Artemis endonuclease inhibitor potency, dose response, biochemical, fluorescence intensity (AID 720701); type: functional;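 note: Artemis endonuclease enzyme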
HEK293 = assay: inhibitors of LMP1-driven NF-kB reporter, dose response, cell-based, HEK293, luciferase, cherry-pick (AID 588343); type: functional; details: Homo sapiens
[9] = biological target: NAD-dependent protein deacylase sirtuin-5, mitochondrial (Homo sapiens, UniProt Q9NXA8); assay: SIRT5 desuccinylase inhibitors, dose response, biochemical, fluorescence imaging, cherry-pick, set 5 (AID 720591);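 note: desuccinylation of succinyl peptide AMC substrate read as fluorescence after trypsin release; potency of inhibitors that lower fluorescence and may act on trypsin instead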
Major prion protein = Major prion protein (Homo sapiens, UniProt P04156); type: functional, cell-based
[10] = biological target: T2, Mannose-6-phosphate isomerase (Homo sapiens, UniProt P34949); assay: human PMI inhibitors, high substrate, primary screen, biochemical, fluorescence intensity, high mannose 6-phosphate (AID 1220)
T2 sequence (P34949 whole entry): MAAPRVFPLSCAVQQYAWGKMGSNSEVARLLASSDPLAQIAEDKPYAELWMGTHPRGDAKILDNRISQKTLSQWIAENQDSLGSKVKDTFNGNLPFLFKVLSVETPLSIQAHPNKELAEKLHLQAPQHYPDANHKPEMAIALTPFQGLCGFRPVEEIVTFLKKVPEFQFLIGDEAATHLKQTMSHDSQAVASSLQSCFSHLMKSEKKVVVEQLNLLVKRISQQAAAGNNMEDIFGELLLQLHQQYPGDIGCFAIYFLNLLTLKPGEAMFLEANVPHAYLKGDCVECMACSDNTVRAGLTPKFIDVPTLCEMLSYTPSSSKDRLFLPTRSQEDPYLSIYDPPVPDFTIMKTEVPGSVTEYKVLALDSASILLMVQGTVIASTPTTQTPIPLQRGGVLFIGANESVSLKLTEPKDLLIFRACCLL

[11] = growth suppression of PTEN-null colon cells, dose response, cell-based, HCT116 PTEN knockout (AID 1047); type: functional;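 note: HCT116 colon tumor cells with PTEN knocked out; cells exposed to compound for 60 hours before readout; potency for loss of cell viability measured by luminescence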
Protein skinhead-1 = biological target: T3, Protein skinhead-1 (Caenorhabditis elegans, UniProt P34707); type: functional
T3 sequence (P34707 whole entry): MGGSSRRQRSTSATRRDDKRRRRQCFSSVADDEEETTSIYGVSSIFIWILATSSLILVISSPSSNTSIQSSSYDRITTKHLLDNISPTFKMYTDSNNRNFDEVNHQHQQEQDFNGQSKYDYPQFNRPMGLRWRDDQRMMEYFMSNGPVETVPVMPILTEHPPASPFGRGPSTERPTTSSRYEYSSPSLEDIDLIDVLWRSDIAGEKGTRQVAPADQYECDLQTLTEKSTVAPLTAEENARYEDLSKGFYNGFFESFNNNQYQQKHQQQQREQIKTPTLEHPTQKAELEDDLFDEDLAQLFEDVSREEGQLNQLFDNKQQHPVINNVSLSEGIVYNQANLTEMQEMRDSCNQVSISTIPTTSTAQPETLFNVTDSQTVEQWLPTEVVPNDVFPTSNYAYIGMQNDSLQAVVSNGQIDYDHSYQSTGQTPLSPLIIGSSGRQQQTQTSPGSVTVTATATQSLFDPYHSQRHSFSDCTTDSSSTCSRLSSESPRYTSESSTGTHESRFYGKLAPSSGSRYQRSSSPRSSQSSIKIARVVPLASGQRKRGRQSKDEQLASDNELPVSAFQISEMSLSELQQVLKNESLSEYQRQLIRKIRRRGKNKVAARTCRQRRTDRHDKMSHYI

Streptococcus = assay: Group A Streptococcus viability loss, dose response, counter-screen for streptokinase expression inhibitor project, luminescence, BacTiterGlo (AID 1915); type: functional, organism-based;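 note: potency for reduction of bacterial viability or growth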
[12] = biological target: Disintegrin and metalloproteinase domain-containing protein 17 (Homo sapiens, UniProt P78536); assay: ADAM17 protease inhibitors, dose response, counter-screen for ADAM10 exosite inhibitor project, biochemical, quenched FRET substrate (AID 743253)
Streptokinase A = biological target: T4, Streptokinase A (Streptococcus pyogenes serotype M1, UniProt P10520); assay: S. pyogenes streptokinase expression inhibitors, potency, dose response, plasminogen activation absorbance, OD405 (AID 1914); type: functional, Streptococcus pyogenes M1 GAS;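 note: secreted streptokinase activity via plasminogen activation per viability signal from cell pellet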
T4 sequence (P10520 whole entry): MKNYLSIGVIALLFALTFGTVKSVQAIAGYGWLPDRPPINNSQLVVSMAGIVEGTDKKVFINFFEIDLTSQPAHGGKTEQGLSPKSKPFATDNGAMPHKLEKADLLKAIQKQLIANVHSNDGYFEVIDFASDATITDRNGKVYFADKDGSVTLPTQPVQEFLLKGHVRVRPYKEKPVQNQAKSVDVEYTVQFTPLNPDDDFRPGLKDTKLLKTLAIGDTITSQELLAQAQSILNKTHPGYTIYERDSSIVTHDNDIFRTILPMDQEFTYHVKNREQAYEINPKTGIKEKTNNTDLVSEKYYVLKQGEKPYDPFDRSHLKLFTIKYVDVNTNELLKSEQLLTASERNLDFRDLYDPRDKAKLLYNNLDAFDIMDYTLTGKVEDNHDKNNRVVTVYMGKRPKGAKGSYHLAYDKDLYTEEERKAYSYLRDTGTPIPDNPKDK

[13] = test system: Streptococcus sp. 'group A'; assay: growth inhibition of control SK(-) GAS strain, dose response, counter-screen for streptokinase expression inhibitor project, luminescence, kanamycin, BacTiterGlo, confirmation (AID 1900); type: functional, organism-based
[14] = growth suppression of beta-catenin-knockout colon cells, dose response, cell-based, HCT116, human colon tumor (AID 1045); type: functional;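 note: HCT116 colon tumor cells with beta catenin knocked out; cells exposed to compound for 60 hours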

In the case of `Cc1ccc(NC(=O)c2ccc(-c3nn(C)c(=O)c4ccccc34)cc2)cc1`, the AC50 [1] is reported as 24.9 µM (active), the AC50 [2] is reported as 6.49 µM (active) and the AC50 [3] is reported as 3.31 µM (active). The AC50 [4] was 57.8 µM (active) and the AC50 [5] was 16.8 µM (active).
In the case of `Cc1ccc(N=Nc2c(N)nn3c(O)cc(-c4ccccc4)nc23)cc1`, the IC50 [6] is reported as 12.9 µM (active), the CC50 (Vero) is reported as 25.1 µM (active) and the IC50 [7] is reported as 13.8 µM (active). The IC50 [8] was 16.9 µM (active).
In the case of `C/C=C/c1ccc(OCCOCCNCc2ccccc2)c(OC)c1`, the AC50 [1] is reported as 3.51 µM (active), the AC50 [2] is reported as 12.2 µM (active) and the AC50 [3] is reported as 5.73 µM (active). The AC50 [4] was 33.7 µM (active) and the AC50 [5] was 4.93 µM (active).
With `CC(Sc1nc(-c2ccc(F)cc2)cs1)C(=O)N1c2ccccc2CC1C` (configuration not stated) the AC50 (HEK293) was 117 µM (active) and the AC50 [9] was > 30 µM (inactive).
In the case of `COC(=O)CSc1ncnc2scc(-c3ccccc3)c12`, the IC50 (cells) is reported as > 138 µM (inactive) and the IC50 (Major prion protein) is reported as 5.59 µM (active).
In the case of `CCOc1cccc(C(=O)NC(=S)Nc2ccc(N3CCCC3)cc2)c1`, the IC50 [8] is reported as > 20 µM (inactive).
With `Oc1nc2cc3c(cc2cc1CN(Cc1cccnc1)C(S)=NCc1ccco1)OCCO3` the IC50 [10] was > 50 µM (not active).
For `COc1ccc(S(=O)(=O)Nc2cc3c4c(oc3c3ccccc23)CC(C)(C)CC4=O)cc1`, the EC50 [11] was 20.1 µM (active), the IC50 (Protein skinhead-1) was > 100 µM (inactive) and the EC50 (Streptococcus) was 78.6 µM (active). The IC50 [12] was > 69.5 µM (inactive), the EC50 (Streptokinase A) was 97 µM (active) and the EC50 [13] was 9.62 µM (active). The EC50 [14] was 26.6 µM (active).
